Source: paper PMC8296573, “Synthesis and Biological Evaluation of Fingolimod Derivatives as Antibacterial Agents” (ACS Omega, 2021)
≈ marks a conversion by molar mass, not a printed value. Where two headings read alike, the source gives them in different places.

Key:
S. aureus ATCC 25923 [1] = assay: Antibacterial activity, post-exposure on preformed 18-h-old biofilms; format: cell-based, Staphylococcus aureus; conditions: ± SD; for inhibition at 25 µM / inhibition at 50 µM / inhibition at 100 µM / inhibition at 200 µM: Staphylococcus aureus; for inhibition at 25 µM: ATCC25923, 25 µM; for inhibition at 50 µM: ATCC25923, 50 µM; for inhibition at 100 µM: ATCC25923, 100 µM; for inhibition at 200 µM: ATCC25923, 200 µM
Method: For the post-exposure experiment, bacteria were grown with no compounds in the same conditions for 18 h, after which the media was changed, and compounds were added on the preformed biofilms. The plates were then incubated in the same conditions for an additional 24 h before proceeding to the staining assays.
(§1) The resazurin staining was performed according to the protocol previously optimized with a few modifications.[46] Briefly, the planktonic solution was first transferred into a new 96-well plate and the OD of the planktonic solution was measured using a Varioskan LUX Multimode microplate reader (Thermo Scientific, Vantaa, Finland). Then, 10 μL of a 400 μM resazurin (R7017, Sigma-Aldrich, St. Louis, MO) diluted in phosphate-buffered saline (PBS) (Thermo Fisher Scientific, MA) was added to the wells (for a final resazurin concentration of 20 μM). The plate was incubated in the dark with shaking (220 rpm) for about 3–10 min at room temperature with S. aureus and A. baumannii (until the bacteria controls turned pink) or for 20 min at 37 °C with P. aeruginosa. Fluorescence was measured at λex = 560 nm and λem = 590 nm using the top optics of the Varioskan LUX Multimode microplate reader. The planktonic plate was then discarded. The original challenge plate containing the biofilms was washed once with PBS, and 200 μL of a 20 μM resazurin solution was added to the wells. The plate was incubated in the dark at 37 °C with shaking (220 rpm) for 30 min with S. aureus, 60 min with A. baumannii, and 90 min with P. aeruginosa. Fluorescence was measured as described for the planktonic solution. The biofilms were next treated with crystal violet staining.
(§2) After removing the resazurin solution from the plate, biofilms were fixed with ethanol 100% for 15 min at room temperature. Ethanol was then removed, and the biofilms were left to air-dry completely at RT. Crystal violet, diluted to 1:100 in deionized water from the 2.3% commercial solution (HT90132, Sigma-Aldrich, St. Louis, MO), was added to the wells and, after a 5 min incubation with the dye, the biofilms were washed twice with deionized water and left to air-dry for about 10 min. The dye was solubilized in ethanol 100% for 1 h, and absorbance was measured at 595 nm using a Multiskan Sky microplate spectrophotometer (Thermo Scientific, Vantaa, Finland).

P. aeruginosa ATCC 9027 = assay: Antibacterial activity, pre-exposure; format: cell-based, Pseudomonas aeruginosa; conditions: for Average inhibition %, biofilms viability / Average inhibition %, planktonic cells viability / inhibition at 50 µM / inhibition at 100 µM / inhibition at 150 µM / inhibition at 200 µM: P. aeruginosa ATCC 9027, pre-exposure, ± SD; for inhibition at 50 µM / inhibition at 100 µM / inhibition at 150 µM / inhibition at 200 µM: Pseudomonas aeruginosa, ATCC9027
Method: (§3) The antimicrobial activity was assessed in a similar way for the initial screening and the dose–response evaluation against different bacterial strains. With the exception of the post-exposure experiment, the compounds were added to the wells along with the bacteria to test the ability of compounds to prevent bacterial growth and biofilm formation (pre-exposure). The compounds were diluted in DMSO and plated directly in 96-well plates before adding the bacterial culture, and plates were incubated for 18 h under aerobic conditions at 37 °C with shaking (220 rpm). The antibacterial activity of the compounds was assessed on planktonic cells and biofilms separately using two different measurements for each: optical density (turbidity) and resazurin reduction (viability) on planktonic cells and resazurin followed by a crystal violet staining assay (total biomass) on biofilms, as described in the following sections.
as §1, §2

A. baumannii NCTC 13423 = assay: Antibacterial activity, pre-exposure; format: cell-based, Acinetobacter baumannii; conditions: for Average inhibition %, biofilms viability / Average inhibition %, planktonic cells viability / inhibition at 10 µM / inhibition at 15 µM / inhibition at 25 µM / inhibition at 50 µM: A. baumannii NCTC 13423, pre-exposure, ± SD; for inhibition at 10 µM / inhibition at 15 µM / inhibition at 25 µM / inhibition at 50 µM: Acinetobacter baumannii, NCTC13423
Method: as §3, §1, §2

S. aureus ATCC 25923 [2] = assay: Antibacterial activity, pre-exposure (planktonic cells and biofilm formation); format: cell-based, Staphylococcus aureus; conditions: for MIC / inhibition at 5 µM / inhibition at 10 µM / inhibition at 15 µM / inhibition at 25 µM: Staphylococcus aureus, ATCC25923; for inhibition at 5 µM / inhibition at 10 µM / inhibition at 15 µM / inhibition at 25 µM / Average inhibition %, biofilms viability / Average inhibition %, planktonic cells viability: pre-exposure, ± SD
Method: as §3, §1, §2

[3] = read-out: Average inhibition %, biofilms biomass
[4] = read-out: Average inhibition %, planktonic cells turbidity
[5] = 50 µM, read-out: Average inhibition %, biofilms biomass
[6] = 50 µM, read-out: Average inhibition %, planktonic cells turbidity
[7] = 10 µM, read-out: Average inhibition %, biofilms biomass
[8] = 10 µM, read-out: Average inhibition %, planktonic cells turbidity
[9] = 15 µM, read-out: Average inhibition %, biofilms biomass
[10] = 15 µM, read-out: Average inhibition %, planktonic cells turbidity
[11] = 25 µM, read-out: Average inhibition %, biofilms biomass
[12] = 25 µM, read-out: Average inhibition %, planktonic cells turbidity

## CCCCCCCCCCc1ccc(CCC(N)(CO)CO)cc1 [Compound 11, 2-Amino-2-(4-decylphenethyl)propane-1,3-diol]
S. aureus ATCC 25923 [1]; 25 µM
  Average inhibition %, biofilms viability: 10.2 ± 8.5%
  Average inhibition %, planktonic cells viability: 0 ± 0%
S. aureus ATCC 25923 [1]; 50 µM
  Average inhibition %, biofilms viability: 17.5 ± 9%
  Average inhibition %, planktonic cells viability: 0 ± 0%
S. aureus ATCC 25923 [1]; 100 µM
  Average inhibition %, biofilms viability: 24.8 ± 10.2%
  Average inhibition %, planktonic cells viability: 6 ± 10.4%
S. aureus ATCC 25923 [1]; 200 µM
  Average inhibition %, biofilms viability: 25.8 ± 8.3%
  Average inhibition %, planktonic cells viability: 30.5 ± 9.5%
S. aureus ATCC 25923 [1]; [3]
  inhibition at 25 µM: 32.6 ± 5.1%
  inhibition at 50 µM: 35.4 ± 2.7%
  inhibition at 100 µM: 48.9 ± 4.7%
  inhibition at 200 µM: 47.6 ± 7.1%
S. aureus ATCC 25923 [1]; [4]
  inhibition at 25 µM: 8.9 ± 8.2%
  inhibition at 50 µM: 14 ± 4.2%
  inhibition at 100 µM: 16.2 ± 8.6%
  inhibition at 200 µM: 22.2 ± 12.7%
P. aeruginosa ATCC 9027; 50 µM
  Average inhibition %, biofilms viability: 0 ± 0%
  Average inhibition %, planktonic cells viability: 26.2 ± 4.1%
P. aeruginosa ATCC 9027; 100 µM
  Average inhibition %, biofilms viability: 0 ± 0%
  Average inhibition %, planktonic cells viability: 6.4 ± 11.1%
P. aeruginosa ATCC 9027; 150 µM
  Average inhibition %, biofilms viability: 0 ± 0%
  Average inhibition %, planktonic cells viability: 10.3 ± 9.3%
P. aeruginosa ATCC 9027; 200 µM
  Average inhibition %, biofilms viability: 0 ± 0%
  Average inhibition %, planktonic cells viability: 1.2 ± 2%
P. aeruginosa ATCC 9027; [5]
  inhibition at 50 µM: 8.3 ± 5.9%
P. aeruginosa ATCC 9027; [6]
  inhibition at 50 µM: 22.2 ± 20.1%
P. aeruginosa ATCC 9027; 100 µM, read-out: Average inhibition %, biofilms biomass
  inhibition at 100 µM: 13 ± 13.3%
P. aeruginosa ATCC 9027; 100 µM, read-out: Average inhibition %, planktonic cells turbidity
  inhibition at 100 µM: 20.4 ± 17.1%
P. aeruginosa ATCC 9027; 150 µM, read-out: Average inhibition %, biofilms biomass
  inhibition at 150 µM: 12.1 ± 11.1%
P. aeruginosa ATCC 9027; 150 µM, read-out: Average inhibition %, planktonic cells turbidity
  inhibition at 150 µM: 7.6 ± 5.1%
P. aeruginosa ATCC 9027; 200 µM, read-out: Average inhibition %, biofilms biomass
  inhibition at 200 µM: 3.1 ± 4.2%
P. aeruginosa ATCC 9027; 200 µM, read-out: Average inhibition %, planktonic cells turbidity
  inhibition at 200 µM: 13.4 ± 11.7%
P. aeruginosa ATCC 9027; pre-exposure, Inactive = no activity up to 200 μM, > = some inhibition but no MIC reached
  MIC P. aeruginosa ATCC 9027: Inactive
A. baumannii NCTC 13423; 10 µM
  Average inhibition %, biofilms viability: 0 ± 0%
  Average inhibition %, planktonic cells viability: 11.8 ± 6%
A. baumannii NCTC 13423; 15 µM
  Average inhibition %, biofilms viability: 0.8 ± 1.4%
  Average inhibition %, planktonic cells viability: 13.2 ± 6.7%
A. baumannii NCTC 13423; 25 µM
  Average inhibition %, biofilms viability: 3.6 ± 5.6%
  Average inhibition %, planktonic cells viability: 10.3 ± 9%
A. baumannii NCTC 13423; 50 µM
  Average inhibition %, biofilms viability: 21.4 ± 1.1%
  Average inhibition %, planktonic cells viability: 0.1 ± 0.1%
A. baumannii NCTC 13423; [7]
  inhibition at 10 µM: 5.1 ± 8.9%
A. baumannii NCTC 13423; [8]
  inhibition at 10 µM: 0%
A. baumannii NCTC 13423; [9]
  inhibition at 15 µM: 0%
A. baumannii NCTC 13423; [10]
  inhibition at 15 µM: 0%
A. baumannii NCTC 13423; [11]
  inhibition at 25 µM: 5.1 ± 4.6%
A. baumannii NCTC 13423; [12]
  inhibition at 25 µM: 0%
A. baumannii NCTC 13423; [5]
  inhibition at 50 µM: 15.9 ± 13.8%
A. baumannii NCTC 13423; [6]
  inhibition at 50 µM: 0%
A. baumannii NCTC 13423; pre-exposure, Inactive = no activity up to 50 μM, > = some inhibition but no MIC reached
  MIC A. baumannii NCTC 13423: Inactive ^d
S. aureus ATCC 25923 [2]; 50 μM, S. aureus
  Initial screening result (active = at least 60% inhibition of planktonic cells and biofilm formation): active
S. aureus ATCC 25923 [2]; lowest concentration with no visible growth (>90% inhibition of turbidity and viability of planktonic cells), 18 h, read-out: MIC S. aureus ATCC 25923
  MIC: 10 to 15 µM (≈ 3.36 to 5.03 µg/mL)
S. aureus ATCC 25923 [2]; 5 µM, read-out: Average inhibition %, biofilms biomass
  inhibition at 5 µM: 40.1 ± 36.6%
S. aureus ATCC 25923 [2]; 5 µM, read-out: Average inhibition %, planktonic cells turbidity
  inhibition at 5 µM: 12.5 ± 12.4%
S. aureus ATCC 25923 [2]; [7]
  inhibition at 10 µM: 75.6 ± 20.8%
S. aureus ATCC 25923 [2]; [8]
  inhibition at 10 µM: 70.4 ± 40%
S. aureus ATCC 25923 [2]; [9]
  inhibition at 15 µM: 87.1 ± 9.9%
S. aureus ATCC 25923 [2]; [10]
  inhibition at 15 µM: 97.5 ± 1.9%
S. aureus ATCC 25923 [2]; [11]
  inhibition at 25 µM: 89 ± 0.7%
S. aureus ATCC 25923 [2]; [12]
  inhibition at 25 µM: 97.9 ± 1.2%
S. aureus ATCC 25923 [2]; read-out: MIC (S. aureus)
  MIC: 10 to 15 µM (≈ 3.36 to 5.03 µg/mL)
S. aureus ATCC 25923 [2]; 5 µM
  Average inhibition %, biofilms viability: 41.8 ± 9.7%
  Average inhibition %, planktonic cells viability: 17 ± 23.3%
S. aureus ATCC 25923 [2]; 10 µM
  Average inhibition %, biofilms viability: 72.2 ± 23.8%
  Average inhibition %, planktonic cells viability: 73.3 ± 34.2%
S. aureus ATCC 25923 [2]; 15 µM
  Average inhibition %, biofilms viability: 84.9 ± 24.9%
  Average inhibition %, planktonic cells viability: 98.5 ± 1.7%
S. aureus ATCC 25923 [2]; 25 µM
  Average inhibition %, biofilms viability: 93.8 ± 10.1%
  Average inhibition %, planktonic cells viability: 99.2 ± 1.3%
